Measurements: patent US20090234019A1, “T Type Calcium Channel Inhibitors” (priority 2004, published 2009)
Values belong to the compound of their own block, whether it stands above or below them.

Experiments:
Jurkat cells [1] = assay: Inhibition of proliferation of Jurkat cells; assay type: cell-based, human
Method: (§1) Cancer cell lines were obtained from the American Type Culture Collection (Manassas, Va.). Cell lines were maintained in RPMI1640 supplemented with glutamine and 5% fetal bovine serum containing SerXtend (Irvine Scientific) when appropriate insulin, as directed by the ATCC. The fetal bovine serum used for culture was heat-inactivated by maintaining the serum at 56° C. for 1 h. Cell lines used were a T celleukemia (Jurkat), prostate cancer (PC3, DU145, LNCAP), breast cancer (MDA468, MDA361, MCF7), pancreatic cancer (MIA PaCa2), liver cancer (Hep G2), lung cancer (A549, NCl H460), colon cancer (HT29, HCT 116), and ovarian cancer (SK-OV-3).
(§2) LNCaP cells at 2.5×10^4 cells/well or PC-3 cells at 5×10^4 cells/well, both in a final volume of […], were plated in triplicate in standard flat-bottomed 96-well tissue culture plates in the presence of drug or vehicle (DMSO). Unless otherwise indicated, cells were grown for 48 h at 37° C. in a CO2 incubator. Relative cell growth was determined with the CellTiter 96 aqueous cell proliferation assay (Promega, Madison, Wis.) as described by the manufacturer using an automated plate reader. Results were calculated in a blinded fashion and are the means of triplicate determinations.

Jurkat cells [2] = assay: Inhibition of calcium entry into Jurkat cells (indo-1 fluorescence); assay type: cell-based, human
Method: Cells were incubated in growth media containing 1 uM of the acetoxy-methyl ester of the Ca2+-sensitive fluorescent dye indo-1 (indo-1/AM; Molecular Probes, Eugene, Oreg.) for 1 h at 37° C. Cells were washed three times in buffer A [10 mM HEPES (pH 7.4), 1 mM MgCl2, 3 mM KCl, 1 mM CaCl2, 140 mM NaCl, 0.1% glucose, and 1% fetal bovine serum] and suspended to a final concentration of 10^6 cells/ml. Before stimulation, cells were warmed to 37° C. Changes in [Ca2+]i were monitored in an SLM […] spectrofluorimeter (SLM/Aminco; Urbana, Ill.) using previously published methods ([…]., Szabo, G., and Gray, L. S. 1996. A voltage operable current is involved in activation-induced Ca^2+ entry in human lymphocytes whereas ICRAC has no apparent role. Am. J. Physiol. 271:[…]., and Gray, L. S. 1998. Calmodulin regulation of Ca^2+ entry in Jurkat T cells. Cell Calcium 23:361-368).

PC3 cells = assay: Inhibition of proliferation of PC3 cells; assay type: cell-based, human; settings: Homo sapiens, PC-3; PC3; NE = no effect at highest concentration of drug tested; read-out: prolif: IC50 for inhibition of proliferation, PC3
Method: as §1, §2

LNCaP cells [3] = assay: Inhibition of proliferation of LNCaP cells; assay type: cell-based; settings: Homo sapiens, NE = no effect at highest concentration of drug tested, read-out: prolif: IC50 for inhibition of proliferation, LNCaP
Method: as §1, §2

MDA-361 cells = assay: Inhibition of proliferation of MDA-361 cells; assay type: cell-based; settings: MDA361, NE = no effect at highest concentration of drug tested, read-out: prolif: IC50 for inhibition of proliferation, MDA-361
Method: as §1, §2

MDA-231 cells [4] = assay: Inhibition of proliferation of MDA-231 cells; assay type: cell-based; settings: Homo sapiens, MDA-MB-231, NE = no effect at highest concentration of drug tested, read-out: prolif: IC50 for inhibition of proliferation, MDA-231
MDA-231 cells [5] = assay: Inhibition of calcium entry into MDA-231 cells; assay type: cell-based; settings: Homo sapiens, MDA-MB-231, NE = no effect at highest concentration of drug tested, read-out: Ca2+: IC50 for inhibition of calcium entry, MDA-231
Method: (§3) Cells were incubated in growth media containing 1 uM of the acetoxy-methyl ester of the Ca2+-sensitive fluorescent dye indo-1 (indo-1/AM; Molecular Probes, Eugene, Oreg.) for 1 h at 37° C. Cells were washed three times in buffer A [10 mM HEPES (pH 7.4), 1 mM MgCl2, 3 mM KCl, 1 mM CaCl2, 140 mM NaCl, 0.1% glucose, and 1% fetal bovine serum] and suspended to a final concentration of 10^6 cells/ml. Before stimulation, cells were warmed to 37° C. Changes in [Ca2+]i were monitored in an SLM 8100C spectrofluorimeter (SLM/Aminco; Urbana, Ill.) using previously published methods (Densmore, J. J., Haverstick, D. M., Szabo, G., and Gray, L. S. 1996. A voltage operable current is involved in activation-induced Ca^2+ entry in human lymphocytes whereas ICRAC has no apparent role. Am. J. Physiol. 271:C1494-C1503; Haverstick, D. M., Densmore, J. J., and Gray, L. S. 1998. Calmodulin regulation of Ca^2+ entry in Jurkat T cells. Cell Calcium 23:361-368).

MDA-435 cells [6] = assay: Inhibition of proliferation of MDA-435 cells; assay type: cell-based; settings: MDA435, NE = no effect at highest concentration of drug tested, read-out: prolif: IC50 for inhibition of proliferation, MDA-435
LNCaP cells [7] = assay: Inhibition of calcium entry into LNCaP cells; assay type: cell-based; settings: Homo sapiens, NE = no effect at highest concentration of drug tested, read-out: Ca2+: IC50 for inhibition of calcium entry, LNCaP
Method: as §3

MDA-435 cells [8] = assay: Inhibition of calcium entry into MDA-435 cells; assay type: cell-based; settings: MDA435, NE = no effect at highest concentration of drug tested, read-out: Ca2+: IC50 for inhibition of calcium entry, MDA-435
Method: as §3

[9] = Homo sapiens, Jurkat cell line, Tables 1 and 2, unit inferred, read-out: IC50 for inhibition of proliferation
[10] = Homo sapiens, Jurkat cell line, Tables 1 and 2, unit inferred, read-out: IC50 for inhibition of Ca^2+ entry
[11] = Jurkat cell line, Tables 1 and 2, unit inferred, read-out: IC50 for inhibition of proliferation
[12] = Jurkat cell line, Tables 1 and 2, unit inferred, read-out: IC50 for inhibition of Ca^2+ entry
[13] = Homo sapiens, Jurkat, NE = no effect at highest concentration of drug tested, read-out: prolif: IC50 for inhibition of proliferation, Jurkat
[14] = Homo sapiens, Jurkat, NE = no effect at highest concentration of drug tested, read-out: Ca2+: IC50 for inhibition of calcium entry, Jurkat

Compound: Prenylamine lactate
IC50 (Jurkat cells [1]; [11]): 10 µM
IC50 (Jurkat cells [2]; [12]): 10 µM

Compound: COc1ccc(COCCOC(c2ccccc2)c2ccc(Cl)cc2)cc1 (centres unmarked) [Compound 3.7]
IC50 (PC3 cells): > 100 µM
IC50 (LNCaP cells [3]): ~100 µM
IC50 (MDA-361 cells): > 100 µM
IC50 (Jurkat cells [1]; [13]): ~100 µM
IC50 (MDA-231 cells [4]): > 100 µM
IC50 (Jurkat cells [2]; [14]): 10 µM
IC50 (MDA-231 cells [5]): 60 µM
IC50 (MDA-435 cells [6]): > 100 µM

Compound: COc1ccc(CCCCCCNC(c2ccccc2)c2ccc(Cl)cc2)cc1 (centres unmarked) [Compound 3.23]
IC50 (PC3 cells): > 100 µM
IC50 (LNCaP cells [3]): ~100 µM
IC50 (Jurkat cells [1]; [13]): ~30 µM
IC50 (MDA-231 cells [4]): > 100 µM
IC50 (MDA-435 cells [6]): > 100 µM

Compound: CCN(CC)C(C)CN1c2ccccc2Sc2ccccc21 (centres unmarked) [Ethopropazine]
IC50 (Jurkat cells [1]; [9]): 30 µM
IC50 (Jurkat cells [2]; [10]): 10 µM

Compound: COc1ccc(CCCCCNCC(c2ccccc2)c2ccc(Cl)cc2)cc1 (centres unmarked) [Compound 3.22]
IC50 (PC3 cells): 9 µM
IC50 (LNCaP cells [3]): 9 µM
IC50 (Jurkat cells [1]; [13]): 13 µM
IC50 (MDA-231 cells [4]): 25 µM
IC50 (Jurkat cells [2]; [14]): 3 µM
IC50 (MDA-231 cells [5]): 10 µM
IC50 (MDA-435 cells [6]): 40 µM

Compound: COc1ccc(CCNCCCCC(c2ccccc2)c2ccc(Cl)cc2)cc1 (centres unmarked) [Compound 3.19]
IC50 (PC3 cells): 10 µM
IC50 (LNCaP cells [3]): 3 µM
IC50 (LNCaP cells [7]): 10 µM
IC50 (Jurkat cells [1]; [13]): 4 µM
IC50 (MDA-435 cells [8]): 10 µM
IC50 (MDA-231 cells [4]): 6 µM
IC50 (Jurkat cells [2]; [14]): 10 µM
IC50 (MDA-231 cells [5]): 10 µM
IC50 (MDA-435 cells [6]): 11 µM

Compound: C[C@H](CCC(=O)O)C[C@H](C)C[C@H](C)C(=O)/C=C(\O)[C@H](C)C[C@H](C)C/C=C/[C@@H](C)[C@@H](O)[C@@H](C)[C@@H](O)C[C@@H]1CC[C@@](C)([C@H]2CC[C@@](C)([C@@H](C)O)O2)O1 [ionomycin]
effect on proliferation of ionomycin alone (Jurkat cells [1]; 30 nM ionomycin alone, Jurkat): no effect

Results, then the compound that gave them:

IC50 (Jurkat cells [1]; [9]): 3 µM
IC50 (Jurkat cells [2]; [10]): 10 µM
Compound: COc1ccc2cc1Oc1ccc(cc1)C[C@H]1c3cc(c(OC)cc3CCN1C)Oc1c(OC)c(OC)cc3c1[C@H](C2)N(C)CC3 [Tetrandrine]

IC50 (Jurkat cells [1]; [9]): 100 µM
IC50 (Jurkat cells [2]; [10]): 50 µM
Compound: O=C(O)c1cccnc1Nc1cccc(C(F)(F)F)c1 [Niflumic acid]

IC50 (Jurkat cells [1]; [9]): 30 µM
IC50 (Jurkat cells [2]; [10]): 10 µM
Compound: COC(=O)C1=C(C)NC(C)=C(C(=O)OCCN(C)Cc2ccccc2)C1c1cccc([N+](=O)[O-])c1 (centres unmarked) [Nicardipine]

IC50 (Jurkat cells [1]; [11]): 30 µM
IC50 (Jurkat cells [2]; [12]): 10 µM
Compound: CC(Cc1ccc(O)c(O)c1)C(C)Cc1ccc(O)c(O)c1 (centres unmarked) [NDGA, Nordihydroguaiaretic acid]

IC50 (Jurkat cells [1]; [9]): 30 µM
IC50 (Jurkat cells [2]; [10]): 30 µM
Compound: Cc1cccc(CN2CCN(C(c3ccccc3)c3ccc(Cl)cc3)CC2)c1 (centres unmarked) [Meclizine]

IC50 (Jurkat cells [1]; [9]): 100 µM
IC50 (Jurkat cells [2]; [10]): 10 µM
Compound: COC(=O)C1=C(C)NC(C)=C(C(=O)OC(C)C)C1c1cccc2nonc12 (centres unmarked) [Isradipine]

IC50 (Jurkat cells [1]; [9]): 10 µM
IC50 (Jurkat cells [2]; [10]): 5 µM
Compound: Cc1cccc(C)c1NC(=O)CN1CCN(CCCC(c2ccc(F)cc2)c2ccc(F)cc2)CC1 [Lidoflazine]

IC50 (Jurkat cells [1]; [11]): > 100 µM
IC50 (Jurkat cells [2]; [12]): > 100 µM
Compound: COCCOC(=O)C1=C(C)NC(C)=C(C(=O)OC(C)C)C1c1cccc([N+](=O)[O-])c1 (centres unmarked) [Nimpodipine]
